Test results as given in patent US20120255853A1, “Method for Producing Superoxide, Method for Evaluating Superoxide Scavenging Ability, Device for Producing Superoxide, and Device for Evaluating Superoxide Scavenging Ability” (Sapporo Medical University, priority 2009, published 2012).

What was measured:
[1] = Inhibition of radical generation by SOD, superoxide generated by light irradiation of riboflavin (ESR); assay type: biochemical
Experimental: To the aqueous solution thus prepared, superoxide dismutase (SOD) (Sigma), which is an enzyme that specifically scavenges superoxide, was added at 10 U/mL to separately prepare an aqueous solution with added SOD.
The aqueous solutions prepared in the present Example (1) (aqueous solutions with or without SOD) were each introduced into the sample tube of the electron spin resonance device JES-RE1X (JEOL Ltd.). Using a xenon lamp, the sample tube was irradiated with visible light of 1500 lux for 30 seconds. Subsequently, a measurement was made by ESR under the following measurement conditions to obtain a spectrum. The spectrum of the SOD-free aqueous solution was obtained as Spectrum A, and the spectrum of the aqueous solution with added SOD was obtained as Spectrum B. The results thus obtained are shown in FIG. 10. […]
Following a similar operation to Example 1 (2), each of the aqueous solutions thus prepared was measured by ESR to obtain a spectrum. Based on the spectrum thus obtained, the amount of a radical generated was quantified.
Based on the quantification results of the amount of a radical generated in the present Examples (1) and (2), the radical generation-inhibitory rate by SOD was calculated by the following formula 5. […]

[2] = Inhibition of radical generation by SOD, superoxide generated by xanthine oxidase (ESR); assay type: biochemical; settings: SOD 0.5, 1, 1.5 U/mL; hypoxanthine 0.39 mmol/L, xanthine oxidase 0.2 U/mL; compared with riboflavin system
Experimental: Into a 50 mmol/L phosphate buffer with pH 7.4, hypoxanthine, CYPMPO (Radical Research Inc.), and diethylenetriaminopentaacetic acid (DETAPAC) were each added at 0.39 mmol/L, 10 mmol/L, and 0.1 mmol/L, respectively, to prepare an aqueous solution (SOD-free aqueous solution). Further, to this aqueous solution, SOD (Sigma) was added at a concentration of 0.5 U/mL, 1 U/mL, and 1.5 U/mL to separately prepare aqueous solutions with added SOD.
To each of the SOD-free aqueous solution and aqueous solutions with added SOD thus prepared, xanthine oxidase was added at 0.2 U/mL. Following a similar operation to Example 1 (2), each of the aqueous solutions was measured by ESR to obtain a spectrum. Subsequently, based on the spectrum thus obtained, the amount of a radical generated was quantified. Measurement by ESR was performed 60 seconds after the addition of xanthine oxidase.
Based on the quantification results of the amount of a radical generated in the present Examples (1) and (2), the radical generation-inhibitory rate by SOD was calculated by the following formula 5.
Radical generation-inhibitory rate by SOD=(S0−S)/[…] (Formula 5)

Radical generation-inhibitory rate by SOD [2]: approximately the same values
Substance: superoxide dismutase [SOD]
Radical generation-inhibitory rate by SOD ([1]; SOD 0.5, 1, 1.5 U/mL, light irradiation of riboflavin, compared with xanthine oxidase system): approximately the same values
Superoxide scavenging (radicals generated with added SOD) ([1]; SOD 10 U/mL, riboflavin 1 μmol/L, EDTA 5 mmol/L, CYPMPO 10 mmol/L): generated a small amount of EDTA radicals but not superoxide
